Results taken from publication PMC7556730 (Chemico-biological interactions, 2020).
Values joined by “and” are separate entries in the source; they are usually repeats but may differ in a detail not shown here. Identical values can stand only once. Marks after values point to notes of the source that are not given here. Values belong to the compound of their own block, whether it stands above or below them.

Legend:
[1] = test system: microsomal carboxylesterases (CESs); assay: Incubations of active microsomes without NADPH; assay type: in vitro ADME, Sprague Dawley rats; conditions: male, Sprague-Dawley, rat, liver microsomes
[2] = test system: microsomal carboxylesterases (CESs) in rat liver microsomes; assay: Incubations of active microsomes without NADPH; assay type: in vitro ADME, Sprague Dawley rats
[3] = test system: cytochrome P450 enzymes (CYPs); assay: Microsomal incubations with benoxacor in the presence of NADPH; assay type: in vitro ADME, Sprague Dawley rats; conditions: Sprague-Dawley, rat, liver microsomes
[4] = test system: hepatic cytochrome P450 enzymes (CYPs) in rat liver microsomes; assay: as above; assay type: in vitro ADME, Sprague Dawley rats; conditions: for percentage of benoxacor remaining: 0.1 mg/mL protein, 0.5 mM NADPH, 5 μM benoxacor
[5] = test system: glutathione S-transferases (GSTs) in rat liver cytosol; assay: Cytosolic incubations with benoxacor in the presence of GSH; assay type: in vitro ADME, Sprague Dawley rats; conditions: for percentage of benoxacor remaining: 1 mg/mL protein, 5 mM GSH, 5 μM benoxacor
[6] = test system: glutathione S-transferases (GSTs); assay: as above; assay type: in vitro ADME, Sprague Dawley rats; conditions: Sprague-Dawley, rat, liver cytosol
[7] = cited from earlier work
cytosolic GSTs = assay: Cytosolic inhibition study with the GST inhibitor ethacrynic acid; assay type: in vitro ADME, Sprague Dawley rats; conditions: for benoxacor depletion in control incubations: ethacrynic acid controls; for percent of benoxacor remaining: 5 minutes
microsomal CESs = assay: Microsomal inhibition study with the CES inhibitor benzil; assay type: in vitro ADME, Sprague Dawley rats

- microsomal CLint [1]: 150 µL/min/mg
- enantiomeric fraction (EF) ([2]; active female rat microsomes without NADPH, 30 minutes): 0.47
- enantiomeric fraction (EF) ([2]; active female rat microsomes without NADPH, initial value): 0.48
- enantiomeric fraction (EF) ([2]; active male rat microsomes without NADPH, initial value): 0.48
- CES Scaled CLint ([2]; male rat): 6.74 mL/min/g liver
- microsomal CLint ([3]; female): 1280 µL/min/mg
- microsomal CLint ([3]; male): 1110 µL/min/mg
- CYP Scaled CLint ([4]; female rat): 57.80 mL/min/g liver
- enantiomeric fraction (EF = A1/(A1+A2)) ([4]; female rat liver microsomes with NADPH, 30 minutes): 0.67±0.01 and 0.67
- enantiomeric fraction (EF = A1/(A1+A2)) ([4]; female rat liver microsomes with NADPH, start of 30-minute time-course): 0.48
- percentage of benoxacor remaining ([4]; female rat liver microsomes, 30 minutes): 48±1%
- CYP Scaled CLint ([4]; male rat): 50.13 mL/min/g liver
- enantiomeric fraction (EF = A1/(A1+A2)) ([4]; male rat liver microsomes with NADPH, 30 minutes): 0.60±0.01 and 0.60
- enantiomeric fraction (EF = A1/(A1+A2)) ([4]; male rat liver microsomes with NADPH, start of 30-minute time-course): 0.48
- percentage of benoxacor remaining ([4]; male rat liver microsomes, 30 minutes): 45±1%
- enantiomeric fraction (EF) ([5]; female rat liver cytosol with GSH, 30 minutes): 0.54±0.01
- enantiomeric fraction (EF) ([5]; female rat liver cytosol with GSH, start of 30-minute time-course): 0.48
- percentage of benoxacor remaining ([5]; female rat liver cytosol, 30 minutes): 18±2%
- GST Scaled CLint ([5]; female rat, significantly different from male (p = 0.0038)): 25.87^a mL/min/g liver
- GST Scaled CLint ([5]; male rat): 40.18 mL/min/g liver
- enantiomeric fraction (EF) ([5]; male rat liver cytosol with GSH, 30 minutes): 0.43±0.01 and 0.43
- enantiomeric fraction (EF) ([5]; male rat liver cytosol with GSH, start of 30-minute time-course): 0.47
- percentage of benoxacor remaining ([5]; male rat liver cytosol, 30 minutes): 9±2%
- microsomal CLint ([6]; female): 280 µL/min/mg
- microsomal CLint ([6]; male): 440 µL/min/mg
- benoxacor depletion in control incubations (cytosolic GSTs; 10 μM): 100±1%
- benoxacor depletion in control incubations (cytosolic GSTs; 100 μM): 102±1%
- benoxacor depletion in control incubations (cytosolic GSTs; 1000 μM): 100±1%
- percent of benoxacor remaining (cytosolic GSTs; female rat cytosol with GSH, 1000 μM ethacrynic acid): 98±2%
- percent of benoxacor remaining (cytosolic GSTs; female rat cytosol with GSH, without inhibitor): 71±3%
- percent of benoxacor remaining (cytosolic GSTs; male rat preparations with GSH, with ethacrynic acid): 96±2%
- percent of benoxacor remaining (cytosolic GSTs; male rat preparations with GSH, without inhibitor): 64±1%
- benoxacor depletion in control incubations (microsomal CESs; benzil controls, 5, 50 and 500 nM): 100±1%
- depletion of benoxacor in the presence of benzil (microsomal CESs; male rat liver microsomes without NADPH, 30 minutes, benzil 5 to 500 nM): not depleted
- percent of benoxacor remaining (microsomal CESs; male rat liver microsomes without NADPH, 30 minutes, without benzil): 92±2%
SMILES: CC1COc2ccccc2N1C(=O)C(Cl)Cl (stereo not shown) [benoxacor, Benoxacor]
- experimental solubility [7]: 22 ± 1.7 µg/mL

SMILES: O=C(C(=O)c1ccccc1)c1ccccc1 [benzil, Benzil, reference compound]
- inhibition of the loss of benoxacor by the CES inhibitor (microsomal CESs; male rat liver microsomes without NADPH, 30 minutes, 5, 50, 500 nM): significantly inhibited
